Measurements taken from ChEMBL document CHEMBL1201862, “PubChem BioAssay data set” (2004).
Activity calls are given as the source filed them.

Key:
[1] = viability of PTEN-deleted HCT116 cells – cell-based, HCT116 PTEN knockout, dose response (AID 1047); format: functional;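 note: HCT116 colon tumor cells with PTEN knocked out; cells exposed to compound for 60 hours before readout; potency for loss of cell viability measured by luminescence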
[2] = viability of HCT116 lacking mutant beta-catenin – cell-based, human colon tumor, dose response (AID 1045); format: functional;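 note: HCT116 colon tumor cells with beta catenin knocked out; cells exposed to compound for 60 hours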
[3] = molecular target: Heat shock protein HSP 90-alpha (Homo sapiens, UniProt P07900); format: functional, organism-based
INS1 = test: INS-1E survival protection against cytokine death – cell-based, luminescence, retest, dose response (AID 449756); format: functional; details: Rattus norvegicus;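 note: cell death triggered by IL-1 beta plus TNF-alpha plus IFN-gamma mixture; protective hits raise ATP signal compared with cytokine alone wells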
[4] = microbe, parasite or virus in culture; format: functional; details: Mycobacterium tuberculosis
[5] = molecular target: Glucose-6-phosphate 1-dehydrogenase (Homo sapiens, UniProt P11413); test: inhibition of Homo sapiens G6PD, dose series – biochemical, fluorescence, selectivity assay for P. falciparum G6PD inhibitor project, dose response (AID 504792); format: functional
H9c2 = test: cells; format: functional, cell-based; details: Rattus norvegicus, H9c2, Myocardium
Cytochrome P450 2C9 = Cytochrome P450 2C9 (Homo sapiens, UniProt P11712)
[6] = molecular target: T1, Carboxy-terminal domain RNA polymerase II polypeptide A small phosphatase 1 (Homo sapiens, UniProt Q9GZU7); test: CTDSP1 inhibitors, concentration-response, biochemical, absorbance readout, ultra-high-throughput screen actives (AID 540297); format: functional
T1 sequence (Q9GZU7 whole entry): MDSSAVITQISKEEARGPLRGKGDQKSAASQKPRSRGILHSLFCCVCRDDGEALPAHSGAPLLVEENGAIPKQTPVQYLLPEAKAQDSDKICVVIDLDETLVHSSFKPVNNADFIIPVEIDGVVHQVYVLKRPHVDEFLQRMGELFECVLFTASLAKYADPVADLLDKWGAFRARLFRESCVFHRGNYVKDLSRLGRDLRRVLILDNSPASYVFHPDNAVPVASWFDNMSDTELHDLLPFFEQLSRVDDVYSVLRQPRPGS

[7] = Luminescence Cell-Based Dose Confirmation HTS to Identify Activators of 5'UTR Stem-Loop Driven Alpha-Synuclein mRNA Translation in H4 Neuroglioblastoma Cells. [Related pubchem assays: 1829 (Project Summary), 1814 (Primary HTS)]; format: functional
[8] = Luminescence Cell-Based Dose Response HTS to Identify Activators of Luciferase Translation or Activity in H4 […] Cells. [Related pubchem assays: 1829 (Project Summary), 1814 (Primary HTS)]; format: functional
H4 = test: Luminescence Cell-Based Dose Response HTS to Identify Activators of 5'UTR Stem-Loop Driven Prion Protein mRNA Translation in H4 Neuroglioblastoma Cells. [Related pubchem assays: 1829 (Project Summary), 1814 (Primary HTS)]; format: functional; details: Homo sapiens
[9] = Luminescence Cell-Based Dose Retest to Confirm Inhibitors of Cancer Stem Cells. [Related pubchem assays (depositor defined):AID2717, AID2721]; format: functional; details: Homo sapiens
[10] = molecular target: T2, Polyadenylate-binding protein 1 (Homo sapiens, UniProt P11940); test: MLLE binding blockers, Cy5 peptide tracer – biochemical, fluorescence polarization, Cy5-PAM2 peptide, secondary, miRNA deadenylation inhibitor project, dose response (AID 602260); format: functional; details: read-out: IC50_Mean
[11] = molecular target: T2, Polyadenylate-binding protein 1; test: MLLE domain peptide-binding blockers, IC50 – biochemical, fluorescence polarization, FITC-PAM2 peptide, dose response (AID 602259); format: functional; details: read-out: IC50_Mean
[12] = test system: Streptococcus sp. 'group A'; test: Streptococcus pyogenes SK(-)GAS viability under kanamycin – luminescence, BacTiterGlo, confirmation, counter-screen for streptokinase expression inhibitor project, dose response (AID 1900); format: functional, organism-based
[13] = Trypanosoma cruzi growth suppression in host cells – NIH3T3 host cells, beta-gal luminescence, confirmation (AID 2044); format: functional, cell-based;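 note: intracellular parasites grown in NIH/3T3 mouse fibroblasts as host cells; luminescent beta-galactosidase reporter signal from transgenic T. cruzi replicating inside host cells; inhibitors lower the luminescence signal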
[14] = NIH3T3 cell viability loss – ATP luminescence, mouse fibroblasts, counter-screen, dose response (AID 2010); format: functional, cell-based;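 note: cells exposed to compound for about 90 hours before reading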
Streptococcus = test: GAS UMAA2166 growth inhibition – luminescence, BacTiterGlo, counter-screen for streptokinase expression inhibitor project, dose response (AID 1915); format: functional, organism-based;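 note: potency for reduction of bacterial viability or growth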
[15] = molecular target: T3, RNA-binding protein pos-1 (Caenorhabditis elegans, UniProt G5EF15); test: disruptors of C. elegans POS-1 RNA interaction – biochemical, fluorescence polarization, dose response (AID 1964);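 note: purified POS-1 fused to maltose binding protein made in E. coli; potency of compounds blocking POS-1 binding to fluorescent RNA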
T3 sequence (G5EF15 whole entry): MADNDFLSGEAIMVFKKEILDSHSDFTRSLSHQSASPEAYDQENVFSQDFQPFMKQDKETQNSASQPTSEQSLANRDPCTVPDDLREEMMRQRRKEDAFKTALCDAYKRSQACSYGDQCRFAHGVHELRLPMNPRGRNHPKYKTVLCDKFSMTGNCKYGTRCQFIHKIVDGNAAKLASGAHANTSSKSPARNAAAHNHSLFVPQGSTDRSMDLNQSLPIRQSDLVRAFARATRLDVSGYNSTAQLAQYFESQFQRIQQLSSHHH

[16] = molecular target: T4, Zinc finger protein mex-5 (Caenorhabditis elegans, UniProt Q9XUB2); test: potency of MEX-5 RNA-binding blockers – biochemical, C. elegans, fluorescence polarization, dose response (AID 1960)
T4 sequence (Q9XUB2 whole entry): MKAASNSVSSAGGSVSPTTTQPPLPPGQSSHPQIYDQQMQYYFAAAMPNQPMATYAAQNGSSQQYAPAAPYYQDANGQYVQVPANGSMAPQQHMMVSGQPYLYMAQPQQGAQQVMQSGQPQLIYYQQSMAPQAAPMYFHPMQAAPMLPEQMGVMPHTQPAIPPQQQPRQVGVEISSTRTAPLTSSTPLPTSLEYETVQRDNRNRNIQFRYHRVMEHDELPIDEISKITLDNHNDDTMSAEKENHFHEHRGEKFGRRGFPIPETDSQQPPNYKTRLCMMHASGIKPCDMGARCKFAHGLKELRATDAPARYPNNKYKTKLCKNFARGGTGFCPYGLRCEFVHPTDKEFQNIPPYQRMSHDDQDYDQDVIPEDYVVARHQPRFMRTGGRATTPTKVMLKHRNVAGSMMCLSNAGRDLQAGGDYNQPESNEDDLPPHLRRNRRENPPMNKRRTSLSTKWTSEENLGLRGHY

Cytochrome P450 1A2 = molecular target: T5, Cytochrome P450 1A2 (Homo sapiens, UniProt P05177);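 note: PubChem cytochrome P450 panel assay, CYP1A2 panel member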
T5 sequence (P05177 whole entry): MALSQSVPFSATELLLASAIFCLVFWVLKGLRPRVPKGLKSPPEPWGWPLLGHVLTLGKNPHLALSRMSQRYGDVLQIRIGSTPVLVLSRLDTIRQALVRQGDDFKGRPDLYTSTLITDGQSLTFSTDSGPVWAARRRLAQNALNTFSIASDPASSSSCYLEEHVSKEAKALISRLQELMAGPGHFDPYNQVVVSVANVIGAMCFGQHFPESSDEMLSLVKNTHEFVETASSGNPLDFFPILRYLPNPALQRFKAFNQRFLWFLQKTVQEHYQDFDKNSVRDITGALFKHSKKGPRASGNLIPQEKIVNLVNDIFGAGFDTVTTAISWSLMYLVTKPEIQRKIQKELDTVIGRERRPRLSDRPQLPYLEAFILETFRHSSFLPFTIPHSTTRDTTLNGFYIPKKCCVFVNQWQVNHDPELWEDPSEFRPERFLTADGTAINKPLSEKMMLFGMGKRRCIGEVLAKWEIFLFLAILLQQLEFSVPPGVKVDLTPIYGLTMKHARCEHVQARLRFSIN

Cytochrome P450 3A4 = Cytochrome P450 3A4 (Homo sapiens, UniProt P08684);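 note: CYP3A4 tested as one member of a cytochrome P450 panel screen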
[17] = molecular target: T6, Ubiquitin-conjugating enzyme E2 N (Homo sapiens, UniProt P61088); format: functional;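 note: Dose-response confirmation in a TR-FRET assay detecting UBC13-driven polyubiquitin chain formation, inhibition measured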
T6 sequence (P61088 whole entry): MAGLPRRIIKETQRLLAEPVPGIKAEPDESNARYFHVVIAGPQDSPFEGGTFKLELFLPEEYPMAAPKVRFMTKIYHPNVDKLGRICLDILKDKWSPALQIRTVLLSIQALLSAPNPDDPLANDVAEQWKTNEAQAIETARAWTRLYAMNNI

[18] = P. falciparum Dd2 growth inhibitors, dose response, SYBR Green, cherry-picked samples (AID 1159567); format: functional, cell-based

T2 sequence (P11940 whole entry, the tested form may be a part): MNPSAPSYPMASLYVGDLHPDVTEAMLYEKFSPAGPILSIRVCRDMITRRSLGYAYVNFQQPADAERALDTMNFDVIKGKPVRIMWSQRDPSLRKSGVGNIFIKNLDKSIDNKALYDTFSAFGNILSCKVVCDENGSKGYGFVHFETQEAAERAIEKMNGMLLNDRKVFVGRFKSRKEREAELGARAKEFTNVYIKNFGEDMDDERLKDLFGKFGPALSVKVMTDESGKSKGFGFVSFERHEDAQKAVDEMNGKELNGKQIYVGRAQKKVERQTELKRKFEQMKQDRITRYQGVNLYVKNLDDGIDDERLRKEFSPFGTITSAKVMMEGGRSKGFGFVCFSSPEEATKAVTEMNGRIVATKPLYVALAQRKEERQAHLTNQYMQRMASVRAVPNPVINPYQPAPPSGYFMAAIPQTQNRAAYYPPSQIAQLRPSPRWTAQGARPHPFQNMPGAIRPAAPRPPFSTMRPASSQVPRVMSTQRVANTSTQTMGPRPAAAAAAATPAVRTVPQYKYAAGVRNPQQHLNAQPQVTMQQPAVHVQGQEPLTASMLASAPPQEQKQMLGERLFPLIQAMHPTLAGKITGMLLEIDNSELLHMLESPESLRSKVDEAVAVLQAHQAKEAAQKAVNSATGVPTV
Chain of Cytochrome P450 2C9 (P11712 whole entry, the tested form may be a part): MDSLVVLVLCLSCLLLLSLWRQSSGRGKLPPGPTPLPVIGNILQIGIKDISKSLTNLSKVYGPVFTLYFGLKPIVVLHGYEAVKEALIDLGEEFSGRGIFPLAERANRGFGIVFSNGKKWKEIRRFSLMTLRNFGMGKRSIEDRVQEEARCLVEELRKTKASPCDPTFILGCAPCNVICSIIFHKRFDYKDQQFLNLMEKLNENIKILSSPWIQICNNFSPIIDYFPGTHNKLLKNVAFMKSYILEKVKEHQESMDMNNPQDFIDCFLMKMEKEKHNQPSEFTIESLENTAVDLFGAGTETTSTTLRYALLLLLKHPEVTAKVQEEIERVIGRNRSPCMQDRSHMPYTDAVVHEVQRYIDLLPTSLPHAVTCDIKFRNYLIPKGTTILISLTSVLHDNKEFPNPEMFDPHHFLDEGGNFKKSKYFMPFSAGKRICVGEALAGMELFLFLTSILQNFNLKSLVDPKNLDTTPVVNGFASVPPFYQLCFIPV
Chain of Glucose-6-phosphate 1-dehydrogenase (P11413 whole entry): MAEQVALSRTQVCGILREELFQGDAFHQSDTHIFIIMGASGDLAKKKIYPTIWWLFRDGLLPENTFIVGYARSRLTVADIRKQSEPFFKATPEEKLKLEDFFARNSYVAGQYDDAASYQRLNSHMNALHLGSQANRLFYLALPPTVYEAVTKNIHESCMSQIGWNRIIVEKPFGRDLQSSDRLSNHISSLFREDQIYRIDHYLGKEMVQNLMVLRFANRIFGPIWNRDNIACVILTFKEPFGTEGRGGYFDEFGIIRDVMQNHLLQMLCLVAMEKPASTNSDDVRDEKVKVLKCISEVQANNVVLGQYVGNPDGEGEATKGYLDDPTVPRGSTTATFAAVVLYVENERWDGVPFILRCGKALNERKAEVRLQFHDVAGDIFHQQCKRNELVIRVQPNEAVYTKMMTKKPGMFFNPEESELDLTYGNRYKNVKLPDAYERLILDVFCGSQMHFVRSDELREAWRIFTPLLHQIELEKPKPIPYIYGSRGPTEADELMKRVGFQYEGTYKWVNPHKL
Chain of Cytochrome P450 3A4 (P08684 whole entry): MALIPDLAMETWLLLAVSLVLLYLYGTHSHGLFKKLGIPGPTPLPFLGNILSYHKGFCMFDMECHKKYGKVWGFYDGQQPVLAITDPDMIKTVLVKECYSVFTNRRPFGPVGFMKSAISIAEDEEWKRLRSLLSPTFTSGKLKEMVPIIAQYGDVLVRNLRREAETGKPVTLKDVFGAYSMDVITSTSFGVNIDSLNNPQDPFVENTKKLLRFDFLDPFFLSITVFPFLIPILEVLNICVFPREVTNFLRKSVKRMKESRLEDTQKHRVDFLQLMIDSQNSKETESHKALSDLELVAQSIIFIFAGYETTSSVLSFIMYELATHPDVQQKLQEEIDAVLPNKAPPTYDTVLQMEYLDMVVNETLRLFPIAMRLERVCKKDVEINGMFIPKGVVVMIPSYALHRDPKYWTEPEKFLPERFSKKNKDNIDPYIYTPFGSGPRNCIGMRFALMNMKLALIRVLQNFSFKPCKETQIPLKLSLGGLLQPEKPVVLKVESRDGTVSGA

## CCN1C/C(=C/c2cccc([N+](=O)[O-])c2)C(=O)/C(=C/c2cccc([N+](=O)[O-])c2)C1
[1]
  EC50: 0.085 µM (active)
[2]
  EC50: 0.062 µM (active)
[3]
  AC50: 4.21 µM (active)
INS1
  AC50: 2.24 µM (active)

## c1ccc(-c2cn3c(n2)CCc2ccc4cccnc4c2-3)cc1
[4]
  CC50: 22.1 µM (active)
[5]
  IC50: > 80 µM (inactive)
H9c2
  IC50: > 79 µM (inactive)

## C[C@@H]1O[C@H]1P(=O)([O-])[O-].[Na+].[Na+]
Cytochrome P450 2C9
  AC50: inconclusive

## O=C1CC(=O)N2N=C(c3ccc([N+](=O)[O-])cc3)SC2=N1
[6]
  IC50: 5.67 µM (active)

## c1ccc(-c2ccc3c(n2)CCCO3)cc1
[7]
  EC50: 47.7 µM (active)
[8]
  EC50: 55.5 µM (active)
H4
  EC50: 7.05 µM (active)

## O=C(OCc1cc(=O)n2c(n1)sc1ccccc12)c1ccc2c(=O)n3c(nc2c1)CCC3
[6]
  IC50: 5.85 µM (active)

## Cc1nnc2oc(O)c(C)c(C)c1-2
Cytochrome P450 2C9
  AC50: inconclusive

## Cc1ccc(Nc2nc(N)c([N+](=O)[O-])c(N3CCCC(C)C3)n2)cc1C (stereo not drawn)
[4]
  CC50: 40 µM (active)
[3]
  AC50: 8.91 µM (active)

## Cn1c(N=C(S)Nc2ccccc2)nc2ccccc21
[4]
  CC50: > 40 µM (active)

## Cc1ccc(OC/C(O)=C(\C#N)c2nc3ccccc3s2)cc1
[4]
  CC50: > 40 µM (active)
[9]
  AC50: 6.14 µM (active)

## Cc1cc(Nc2cc(Cl)nc(Sc3ccc(NC(=O)C4CC4)cc3)n2)[nH]n1
[4]
  CC50: 35.8 µM (active)

## CCOc1ccc2c(c1)-c1c(ssc1=S)C(C)(C)N2C(=O)CSC1=NCCS1
[10]
  IC50: > 66 µM (inactive)
[11]
  IC50: > 66 µM (inactive)

## O=C(CCc1ccccc1)NC(=S)Nc1ccc(S(=O)(=O)N2CCOCC2)cc1
[10]
  IC50: > 66 µM (inactive)
[11]
  IC50: > 66 µM (inactive)

## COc1ccc(C(=S)Nc2ccc(C)cc2)cc1
[10]
  IC50: > 66 µM (inactive)
[11]
  IC50: > 66 µM (inactive)

## CCc1c(C)sc(NC(=O)OC)c1C(N)=O
Cytochrome P450 2C9
  AC50: inconclusive

## CC(=O)c1ccc(N2CCC(c3cc(-c4ccc(Cl)cc4Cl)[nH]n3)CC2)c([N+](=O)[O-])c1
[12]
  EC50: 4.36 µM (active)
[13]
  EC50: 1.24 µM (active)
[4]
  CC50: 29.2 µM (active)
[14]
  EC50: > 60 µM (inconclusive)
Streptococcus
  EC50: 8.12 µM (active)
[9]
  AC50: 2.19 µM (active)

## Cc1ccc(F)cc1NC(=O)c1sc2ncn(CC(=O)N3CCN(c4ccccn4)CC3)c(=O)c2c1C
[7]
  EC50: > 120 µM (not active)
[8]
  EC50: > 120 µM (not active)
H4
  EC50: > 120 µM (not active)

## CC1CC(C)CN(C(=O)COC(=O)/C=C/c2ccco2)C1 (stereo not drawn)
[6]
  IC50: 19.9 µM (active)

## CCCCc1cn([C@@H](CCCCN)C(=O)N2CCNCC2)nn1
[15]
  EC50: 31.9 µM (active)
[16]
  EC50: 26.1 µM (active)
[10]
  IC50: > 66 µM (inactive)
[11]
  IC50: 21 µM (inactive)

## CC(SCC(=O)Nc1ccccc1)c1nc(O)c2ccccc2n1 (stereo not drawn)
[5]
  IC50: 22.3 µM (inactive)

## NC(=S)N=Nc1c(O)[nH]c2ccc(F)cc12
[10]
  IC50: > 66 µM (inactive)
[11]
  IC50: > 66 µM (inactive)

## CCN(CC)c1nc(N)nc(NS(=O)(=O)c2ccc(Cl)cc2)n1
[5]
  IC50: > 80 µM (inactive)

## O=[N+]([O-])c1cccc(C(=S)N2CCN(c3ccccc3)CC2)c1
[10]
  IC50: > 66 µM (inactive)
[11]
  IC50: > 66 µM (inactive)

## CCNc1ncc2nc(-c3ccccc3)c(=O)n(Cc3ccc(F)cc3)c2n1
Cytochrome P450 1A2
  AC50: 3.16 µM (inconclusive)
Cytochrome P450 3A4
  AC50: 20 µM (inconclusive)
Cytochrome P450 2C9
  AC50: inconclusive

## CCCS(=O)(=O)N1CCN=C1SCc1cccnc1
[10]
  IC50: > 66 µM (inactive)
[11]
  IC50: > 66 µM (inactive)

## CC(=O)NC1=NC(=O)CS1
Cytochrome P450 1A2
  AC50: 0.2 µM (inconclusive)
Cytochrome P450 2C9
  AC50: inconclusive

## O=[N+]([O-])c1ccc2c(c1)-c1ccccc1C2O (stereo not drawn)
[5]
  IC50: > 80 µM (inactive)

## CON=C(C(=O)NC1C(=O)N2C(C(=O)O)=C(CSc3nc(=O)c(=O)[nH]n3C)CSC12)c1csc(N)n1 (stereo not drawn)
[6]
  IC50: 2.89 µM (active)

## COc1ccc(Cl)cc1Nc1nc(-c2sc(NC(=O)c3ccccc3)nc2C)cs1
[1]
  EC50: 7.12 µM (active)
[2]
  EC50: 10.3 µM (active)

## C=CCn1cc(/C=N\NC(=O)c2cc3c(ccc4ccccc43)o2)c2ccccc21
Cytochrome P450 2C9
  AC50: inconclusive

## CCOc1ccc(Cl)cc1/C=N/NC(N)=O
[5]
  IC50: > 80 µM (inactive)
[17]
  IC50: > 20 µM (inactive)

## COCC(=O)N1[C@H](CO)[C@@H](c2ccccc2)C12CN(Cc1cc(F)ccc1F)C2
[18]
  AC50: 18.1 µM (active)

## CN1C(=O)c2cc(NC(=O)c3cnccn3)ccc2OC[C@H]2O[C@@H](CC(=O)N[C@H]3CCN(Cc4ccccc4)C3)CC[C@H]21
[18]
  AC50: 6.41 µM (active)

## N#C[C@@H]1[C@H](c2ccccc2-c2ccc(F)cc2)[C@H](CO)N1C(=O)NC1CCCC1
[18]
  AC50: 5.12 µM (active)

## NCCSC[C@H](N)C(=O)O
Cytochrome P450 2C9
  AC50: inconclusive

## O=C(O)c1cccc(-n2cccc2/C=C2/NC(=O)N(c3cccc(Cl)c3)C2=O)c1
[6]
  IC50: 9.53 µM (active)

## O=C1C(O)=C(C2CCC(c3ccc(Cl)cc3)CC2)C(=O)c2ccccc21 (stereo not drawn)
[4]
  CC50: 12.8 µM (active)
Cytochrome P450 1A2
  AC50: 10 µM (inconclusive)
